Test results from patent publication US6369069B1 (Aventis Pharma Deutschland GmbH, priority 1998, dated 2002).

What follows are compounds tested on Na^+-dependent Cl^−/HCO3^− exchanger (NCBE) (assay: Inhibition of the Na+-dependent Cl−/HCO3− exchanger (NCBE) in human endothelial cells (pHi recovery, BCECF fluorescence, FLIPR)). Conditions: 10 μM.
Format: cell-based
Procedure: Inhibition of the Na^+-dependent Cl^−/HCO3^− exchanger (NCBE) in human endothelial cells
Human endothelial cells (ECV-304) were detached form culture flasks with the aid of trypsin/EDTA buffer (0.05/0.02% in phosphate buffer) and, after centrifugation (100 g, 5 min), taken up in a buffered saline solution (mmol/l: 115 NaCl, 20 NH4Cl, 5 KCl, 1 CaCl2, 1 MgSO4, 20 N-(2-hydroxyethyl)-piperazine-N[…]-2-ethanesulfonic acid (HEPES), 5 glucose and 1 g/l of bovine serum albumin; pH 7.4). This cell suspension was incubated at 37 °C. for 20 min with 5 μM BCECF acetoxymethyl ester. The cells were then washed and resuspended in a sodium- and bicarbonate-free buffer solution (mmol/l: 5 HEPES, 133.8 choline chloride, 4.7 KCl, 1.25 MgCl2, 0.97 K2HPO4, 0.23 KH2PO4, 5 glucose; pH 7.4).
For the subsequent fluorescence measurement in the FLIPR (Fluorescent Imaging Plate Reader), 100 μl of this cell suspension in each case containing 20,000 cells were added by pipette per well of a 96-well microtiter plate and this microtiter plate was centrifuged (100 g, 5 min). In the FLIPR, 100 μl of buffer solution in each case were then removed from a further prepared microtiter plate and added by pipette to each of the 96 wells of the measuring plate. In this case, for a 100% control, i.e. a recovery of the intracellular pH (pHi) by means of the NCBE, a bicarbonate- and sodium-containing buffer solution (mmol/l: 5 HEPES, 93.8 NaCl, 40 NaHCO3, 4.7 KCl, 1.25 CaCl2, 1.25 MgCl2, 0.97 Na2HPO4, 0.23 NaH2PO4, 5 glucose; pH 7.4) which contained 50 μM HOE 642 was used. For a 0% control, i.e. no pHi recovery at all, a bicarbonate-free, sodium-containing buffer solution (mmol/l: 5 HEPES, 133.8 NaCl, 4.7 KCl, 1.25 CaCl2, 1.25 MgCl2, 0.97 Na2HPO4, 0.23 NaH2PO4, 5 glucose; pH 7.4) to which 50 μM HOE 642 were also added was employed. The compounds according to the invention were added in various concentrations of the sodium- and bicarbonate-containing solution. After addition of the buffer solutions to the dye-loaded acidified cells situated in the measuring plate, the increase in the fluorescence intensity which corresponded to an increase in the pHi was determined in each well of the microtiter plate.
The kinetics were in this case recorded at 35° C. over a period of 2 minutes. The increase in the fluorescence intensities for different concentrations of the compounds according to the invention was related to the two controls and from this the inhibitory action of the substances was determined.

Row | Structure (SMILES) | Residual activity % of the NCBE at 10 μM [%]
1 | CC(C)(C)CC(=O)N(Cc1ccc(F)cc1)Cc1ccc(-c2ccccc2S(=O)(=O)NC#N)cc1 [Example 163] | 93.4
2 | N#CNS(=O)(=O)c1ccccc1-c1ccc(CN(CCOc2ccccc2)C(=O)Cc2ccc(Cl)cc2)cc1 [Example 151] | 29.0
3 | COc1cccc(CN(Cc2ccc(-c3ccccc3S(=O)(=O)NC#N)cc2)C(=O)NC(C)C)c1 [Example 302] | 80.4
4 | N#CNS(=O)(=O)c1ccccc1-c1ccc(CN(Cc2ccc(Cl)c(Cl)c2)C(=O)CCC2CCCCC2)cc1 [Example 264] | 74.3
5 | C#CCN(Cc1ccc(-c2ccccc2S(=O)(=O)NC#N)cc1)C(=O)CCC1CCCCC1 [Example 249] | 76.1
6 | N#CNS(=O)(=O)c1ccccc1-c1ccc(CN(C(=O)CCC2CCCCC2)C2CCCCC2)cc1 [Example 12] | 92.9
7 | N#CNS(=O)(=O)c1ccccc1-c1ccc(CN(C(=O)CC2CCCCC2)C2CCc3ccccc32)cc1 (stereo not shown) [Example 354] | 37.2
8 | Cc1ccccc1CN(Cc1ccc(-c2ccccc2S(=O)(=O)NC#N)cc1)C(=O)CC1CCCC1 [Example 362] | 44.1
9 | N#CNS(=O)(=O)c1ccccc1-c1ccc(CN(Cc2cccc(Cl)c2)C(=O)Cc2cccs2)cc1 [Example 273] | 32.4
10 | N#CNS(=O)(=O)c1ccccc1-c1ccc(CN(Cc2ccc(C(F)(F)F)cc2)C(=O)c2ccccc2Cl)cc1 [Example 109] | 75.4
11 | N#CNS(=O)(=O)c1ccccc1-c1ccc(CN(CCc2cccs2)C(=O)Cc2ccc(Cl)cc2)cc1 [Example 150] | 44.7
12 | N#CNS(=O)(=O)c1ccccc1-c1ccc(CN(C(=O)Cc2csc3ccccc23)C2CC2)cc1 [Example 213] | 45.0
13 | N#CNS(=O)(=O)c1ccccc1-c1ccc(CN(Cc2ccc(C(F)(F)F)cc2)C(=O)c2cccs2)cc1 [Example 89] | 67.6
14 | COc1ccc(CN(Cc2ccc(-c3ccccc3S(=O)(=O)NC#N)cc2)C(=O)c2ccccc2Cl)cc1 [Example 57] | 82.1
15 | N#CNS(=O)(=O)c1ccccc1-c1ccc(CN(Cc2ccco2)C(=O)COc2ccccc2)cc1 [Example 164] | 76.4
16 | N#CNS(=O)(=O)c1ccccc1-c1ccc(CN(Cc2ccc(Cl)c(Cl)c2)C(=O)CCCCc2ccccc2)cc1 [Example 262] | 45.3
17 | CC(C)(C)OC(=O)C(c1ccccc1)N(Cc1ccc(-c2ccccc2S(=O)(=O)NC#N)cc1)C(=O)CCc1cccs1 (stereo not shown) [Example 287] | 51.1
18 | N#CNS(=O)(=O)c1ccccc1-c1ccc(CN(Cc2nc3ccccc3[nH]2)C(=O)Cc2csc3ccccc23)cc1 [Example 216] | 62.2
19 | N#CNS(=O)(=O)c1ccccc1-c1ccc(CN(Cc2ccccn2)C(=O)CCCc2cccs2)cc1 [Example 188] | 52.3
20 | COCCC(=O)N(Cc1ccc(-c2ccccc2S(=O)(=O)NC#N)cc1)Cc1cccc(-c2ccccc2)c1 [Example 327] | 17.4
21 | N#CNS(=O)(=O)c1ccccc1-c1ccc(CN(CC2=Nc3ccccc3CN2)C(=O)Cc2cccs2)cc1 [Example 238] | 54.7
22 | N#CNS(=O)(=O)c1ccccc1-c1ccc(CN(CC2CC2)C(=O)COc2ccccc2)cc1 [Example 168] | 96.4

Row | Structure (SMILES) | Residual activity % of the NCBE at 10 μM [%]
23 | COCCN(Cc1ccc(-c2ccccc2S(=O)(=O)NC#N)cc1)C(=O)CCCc1cccs1 [Example 187] | 62.4
24 | N#CNS(=O)(=O)c1ccccc1-c1ccc(CN(Cc2ccc(Cl)cc2Cl)C(=O)CCc2cccs2)cc1 [Example 288] | 63.1
25 | N#CNS(=O)(=O)c1ccccc1-c1ccc(CN(Cc2ccncc2)C(=O)Cc2ccc(Cl)cc2)cc1 [Example 156] | 86.0
26 | CCCC(=O)N(CCO)Cc1ccc(-c2ccccc2S(=O)(=O)NC#N)cc1 [Example 2] | 78.1
27 | COCCC(=O)N(Cc1ccc(-c2ccccc2S(=O)(=O)NC#N)cc1)CC1CCCO1 (stereo not shown) [Example 328] | 87.0
28 | N#CNS(=O)(=O)c1ccccc1-c1ccc(CN(Cc2ccc(C(F)(F)F)cc2)C(=O)C(c2ccccc2)c2ccccc2)cc1 [Example 119] | 75.7
29 | COCCN(Cc1ccc(-c2ccccc2S(=O)(=O)NC#N)cc1)C(=O)C(=O)c1cccs1 [Example 195] | 58.3
30 | N#CNS(=O)(=O)c1ccccc1-c1ccc(CN(CC2CCCCC2)C(=O)Cc2cccs2)cc1 [Example 256] | 36.4
31 | COc1ccccc1C(=O)N(Cc1ccc(-c2ccccc2S(=O)(=O)NC#N)cc1)C1CCCc2ccccc21 (stereo not shown) [Example 335] | 79.6
32 | CCCCC(=O)N(Cc1ccc(Cl)cc1)Cc1ccc(-c2ccccc2S(=O)(=O)NC#N)cc1 [Example 65] | 80.0
33 | C[C@H](c1ccccc1)N(Cc1ccc(-c2ccccc2S(=O)(=O)NC#N)cc1)C(=O)Cc1ccccc1 [Example 128] | 61.4
34 | N#CNS(=O)(=O)c1ccccc1-c1ccc(CN(C(=O)CC2CCCC2)C2CCc3ccccc32)cc1 (stereo not shown) [Example 364] | 52.6
35 | N#CNS(=O)(=O)c1ccccc1-c1ccc(CN(Cc2ccc3ccccc3c2)C(=O)Cc2cccs2)cc1 [Example 310] | 47.7
36 | COCCC(=O)N(Cc1ccc(-c2ccccc2S(=O)(=O)NC#N)cc1)Cc1ccc2ccccc2c1 [Example 320] | 38.8
37 | COc1ccc(CN(Cc2ccc(-c3ccccc3S(=O)(=O)NC#N)cc2)C(=O)Cc2ccc(Cl)cc2)c(OC)c1 [Example 154] | 36.2
38 | CC(C)CN(Cc1ccc(-c2ccccc2S(=O)(=O)NC#N)cc1)C(=O)c1cccs1 [Example 82] | 99.8
39 | N#CNS(=O)(=O)c1ccccc1-c1ccc(CN(CC2CCCCC2)C(=O)C(NC(=O)OCc2ccccc2)c2ccccc2)cc1 (stereo not shown) [Example 265] | 68.9
40 | N#CNS(=O)(=O)c1ccccc1-c1ccc(CN(C(=O)CCCc2cccs2)C2CC2)cc1 [Example 189] | 72.5
41 | Cc1ccc(CN(Cc2ccc(-c3ccccc3S(=O)(=O)NC#N)cc2)C(=O)c2ccccc2F)cc1 [Example 95] | 74.7
42 | COc1ccc(CN(Cc2ccc(-c3ccccc3S(=O)(=O)NC#N)cc2)C(=O)Cc2cccs2)cc1 [Example 27] | 35.5
43 | COc1ccc(CC(=O)N(Cc2ccc(-c3ccccc3S(=O)(=O)NC#N)cc2)CC2CC2)cc1 [Example 175] | 93.2
44 | N#CNS(=O)(=O)c1ccccc1-c1ccc(CN(Cc2cccs2)C(=O)C(NC(=O)OCc2ccccc2)c2ccccc2)cc1 (stereo not shown) [Example 251] | 83.9

Same assay, conditions: compound at 10 μM; R(3) to R(7) hydrogen series

Row | Structure (SMILES) | Residual activity % of the NCBE at 10 μM [%]
45 | N#CNS(=O)(=O)c1ccccc1-c1ccc(CN(Cc2ccccc2F)C(=O)CC2CCCC2)cc1 [Example 366] | 38.4
46 | N#CNS(=O)(=O)c1ccccc1-c1ccc(CN(CC2(c3ccccc3)CCCC2)C(=O)Cc2cccs2)cc1 [Example 392] | 55.6
47 | CC(C(=O)N(Cc1ccc(-c2ccccc2S(=O)(=O)NC#N)cc1)Cc1cccc2ccccc12)c1cccs1 (stereo not shown) [Example 390] | 89.8

Same assay, conditions: compound at 10 μM; sub-table with R7 substituent

Row | Structure (SMILES) | Residual activity % of the NCBE at 10 μM [%]
48 | Cc1ccc(-c2ccc(CN(Cc3cccc4ccccc34)C(=O)Cc3ccsc3)cc2)c(S(=O)(=O)NC#N)c1 [Example 538] | 80.3
49 | Cc1ccc(-c2ccc(CN(Cc3ccc4ccccc4c3)C(=O)Cc3cccs3)cc2)c(S(=O)(=O)NC#N)c1 [Example 515] | 68.9
50 | Cc1ccc(-c2ccc(CN(Cc3ccccc3F)C(=O)C(C)c3cccs3)cc2)c(S(=O)(=O)NC#N)c1 (stereo not shown) [Example 527] | 67.5
51 | Cc1ccc(-c2ccc(CN(Cc3ccccc3)C(=O)Cc3ccsc3)cc2)c(S(=O)(=O)NC#N)c1 [Example 537] | 54.4
52 | Cc1ccc(-c2ccc(CN(CCc3ccccc3)C(=O)C(C)c3cccs3)cc2)c(S(=O)(=O)NC#N)c1 (stereo not shown) [Example 526] | 64.9
